Laboratory results from US9176124B2, “Method for measurement of equol in biological sample by immunoassay, kit for the measurement, and method for determination of equol production ability of subject” (OTSUKA PHARMACEUTICAL CO., LTD., priority 2009, dated 2015).

What was measured:
[1] = system: anti-equol rabbit antiserum (primary antibody); experiment: Cross-reactivity of the primary antibody by competitive ELISA (Test Example 2); type: binding; conditions: (IC20 of S-equol/IC20 of each isoflavone, etc.)×100, S-equol assumed 100%, horseradish peroxidase-labeled S-equol as labeled antigen, samples in 100% charcoal-treated human serum
Source text: The above cross-reactivity can be explained as follows. Specifically, the above cross-reactivity indicates a ratio (%) of the concentration (IC20) of unlabeled S-equol at which the binding reaction of labeled S-equol to the anti-equol antibody can be inhibited by 20%, to the concentration (IC20) of each isoflavone and the like at which the binding reaction of labeled S-equol to the anti-equol antibody can be inhibited by 20%. More specifically, in the competitive reaction between labeled S-equol and unlabeled S-equol, the concentration of unlabeled S-equol at which the binding of labeled S-equol to the antibody is 80 is determined, assuming that the binding of labeled S-equol alone to the antibody is 100. Similarly, each unlabeled isoflavone and the like are competitively reacted with labeled S-equol, and the concentration of each isoflavone and the like at which binding of labeled S-equol to the antibody is 80 is determined.
The thus-determined ratio (expressed in percentage) between the concentration (IC20) of the unlabeled S-equol and the concentration (IC20) of each isoflavone and the like is referred to as the cross-reactivity. This is represented by the following formula: Cross-reactivity (%)=(IC20 of S-equol/IC20 of each isoflavone, etc.)×100
Herein, the cross-reactivity rate is determined by competitive ELISA, using S-equol as the standard antigen used for the preparation of a standard curve, as well as the labeled antigen that competes with equol in a biological sample.
In this Test Example, the cross-reactivity of the primary antibody was examined for the case where competitive ELISA was employed and S-equol was used as both the standard antigen and the labeled antigen. Specifically, the cross-reactivity was examined as follows.
Each of the isoflavones and the like shown in the later-described Table 4 was dissolved in 100% charcoal-treated human serum, and the resulting solution was used as a sample.
An anti-equol rabbit antiserum was used as the primary antibody, as in Example 1. The antiserum was suitably diluted with the later-described antiserum dilution buffer, and used in the test.
A goat anti-rabbit IgG antibody was used as a secondary antibody, as in Example 1. The antibody was immobilized to a solid phase as in Example 1, thus preparing a plate containing immobilized goat anti-rabbit IgG antibody.
Horseradish peroxidase-labeled S-equol was used as a labeled antigen, as in Example 1.
S-equol was used as a standard antigen, as in Example 1. Note that a standard equol solution in the forth of a mixed solution of S-equol (0, 30, 90, 270, or 810 ng/mL) and 100% charcoal-treated human serum was used.
A concentration dilution series was prepared for each of the isoflavones and the like, and for unlabeled S-equol. The adsorption by each of the isoflavones and the like, and the adsorption by unlabeled S-equol in the competitive reaction were measured from when the concentrations of these substances were 0 to when the concentrations of these substances were added in excess amounts. Each of the thus-obtained measured values was checked against a standard curve obtained from the dilution series of the standard antigen (S-equol), so as to compare the inhibition of the reaction based on each calculated value. Thereby, the concentration (IC20) of each of the isoflavones and the like, as well as the concentration (IC20) of unlabeled S-equol, at which the binding reaction of labeled S-equol to the anti-equol antibody is inhibited by 20%, were determined.
The competitive reaction was performed using competitive ELISA by a procedure similar to that in Example 1. Further, horseradish peroxidase was used as a labeling substance.
The ratio (expressed in percentage) of the thus-obtained concentration of each of the isoflavones and the like to the thus-obtained concentration of unlabeled S-equol was regarded as the cross-reactivity. […]

Labmaster Equol TR-FIA [2] = experiment: Cross-reactivity of the known kit Labmaster Equol TR-FIA; type: binding; conditions: with daidzein
Source text: Further, for example, when Labmaster Equol TR-FIA, which is a heretofore known kit manufactured by Labmaster, is used, the cross-reactivity rate with daidzein is 0.8% (see labmaster.fi/products/tr-fia-kitS-equol-tr-fia.htm), and the cross-reactivity of the kit is 10 times as high as that of the present kit.

Labmaster Equol TR-FIA [3] = conditions: heretofore known kit; cited from earlier work
monoclonal antibody = conditions: Clinical Chemistry 53: 748-756, 2007; cited from earlier work

Structure (SMILES)	Cross-reactivity Rate [1] [%]	further results
COc1ccc(-c2coc3cc(O)cc(O)c3c2=O)cc1 [Biochanin A]	0.11	
Oc1ccc([C@H]2COc3cc(O)ccc3C2)cc1 [S-Equol]	100.00	
Oc1ccc([C@@H]2COc3cc(O)ccc3C2)cc1 [R-Equol]	13.24	Cross-reactivity Rate ([1]; listed as R-equol): 13.24%
O=c1c(-c2ccc(O)cc2)coc2cc(O)ccc12 [Daidzein]	0.08	cross-reactivity of the Labmaster kit relative to the present kit (Labmaster Equol TR-FIA [2]): 10 times; Cross-reactivity Rate (Labmaster Equol TR-FIA [3]): 0.8%; Cross-reactivity Rate ([1]; listed as daidzein): 0.08%; Cross-reactivity Rate (monoclonal antibody): < 0.04%
O=c1c(-c2ccc(O)cc2)coc2cc(O[C@@H]3O[C@H](CO)[C@@H](O)[C@H](O)[C@H]3O)cc(O)c12 [Genistin]	0.06	
O=c1c(-c2ccc(O)cc2)coc2cc(O[C@@H]3O[C@H](CO)[C@@H](O)[C@H](O)[C@H]3O)ccc12 [Daidzin]	0.06	Cross-reactivity Rate ([1]; listed as daidzin): 0.06%
O=c1cc(-c2ccc(O)c(O)c2)oc2cc(O)cc(O)c12 [Luteolin]	0.00	
COc1cc2c(=O)c(-c3ccc(O)cc3)coc2cc1O [Glycitein]	0.03	
COc1cc2c(=O)c(-c3ccc(O)cc3)coc2cc1O[C@@H]1O[C@H](CO)[C@@H](O)[C@H](O)[C@H]1O [Glycitin]	0.02	
O=C1c2ccc(O)cc2OCC1c1ccc(O)cc1 (centres unmarked) [Dihydrodaizein]	1.03	Cross-reactivity Rate (Labmaster Equol TR-FIA [3]): 4.0%; Cross-reactivity Rate ([1]; listed as dihydrodaidzein): 1.03%
O=c1cc(-c2ccc(O)cc2)oc2cc(O)cc(O)c12 [Apigenin]	0.00	
Oc1ccc(C2=Cc3ccc(O)cc3OC2)cc1 [Dehydroequol]	0.33	Cross-reactivity Rate (Labmaster Equol TR-FIA [3]): 42.3%; Cross-reactivity Rate ([1]; listed as dehydroequol): 0.33%
O=c1c(-c2ccc(O)cc2)coc2cc(O)cc(O)c12 [Genistein]	0.05	
